In US10899754B2, “Modulators of indoleamine 2,3-dioxygenase” (GLAXOSMITHKLINE INTELLECTUAL PROPERTY DEVELOPMENT LIMITED, priority 2016, dated 2021):

Legend:
Assay type in all cases: cell-based
[1] = system: human epithelial HeLa cells; experiment: HeLa cytotoxicity assay (CellTiter-Glo); settings: pCC50
Description: (§1) Compounds of the present invention were tested via high-throughput cellular assays utilizing detection of kynurenine via mass spectrometry and cytotoxicity as end-points. For the mass spectrometry and cytotoxicity assays, human epithelial HeLa cells (CCL-2; ATCC®, Manassas, Va.) were stimulated with human interferon-γ (IFN-γ) (Sigma-Aldrich Corporation, St. Louis, Mo.) to induce the expression of indoleamine 2, 3-dioxygenase (IDO1). Compounds with IDO1 inhibitory properties decreased the amount of kynurenine produced by the cells via the tryptophan catabolic pathway. Cellular toxicity due to the effect of compound treatment was measured using CellTiter-Glo® reagent (CTG) (Promega Corporation, Madison, Wis.), which is based on luminescent detection of ATP, an indicator of metabolically active cells.
(§2) In preparation for the assays, test compounds were serially diluted 3-fold in DMSO from a typical top concentration of 1 mM or 5 mM and plated at 0.5 μL in 384-well, polystyrene, clear bottom, tissue culture treated plates with lids (Greiner Bio-One, Kremsmünster, Austria) to generate 11-point dose response curves. Low control wells (0% kynurenine or 100% cytotoxicity) contained either 0.5 μL of DMSO in the presence of unstimulated (−IFN-γ) HeLa cells for the mass spectrometry assay or 0.5 μL of DMSO in the absence of cells for the cytotoxicity assay, and high control wells (100% kynurenine or 0% cytotoxicity) contained 0.5 μL of DMSO in the presence of stimulated (+IFN-γ) HeLa cells for both the mass spectrometry and cytotoxicity assays.
(§3) Frozen stocks of HeLa cells were washed and recovered in DMEM high glucose medium with HEPES (Thermo Fisher Scientific, Inc., Waltham, Mass.) supplemented with 10% v/v certified fetal bovine serum (FBS) (Thermo Fisher Scientific, Inc., Waltham, Mass.), and 1× penicillin-streptomycin antibiotic solution (Thermo Fisher Scientific, Inc., Waltham, Mass.). The cells were diluted to 100,000 cells/mL in the supplemented DMEM medium. 50 μL of either the cell suspension, for the mass spectrometry assay, or medium alone, for the cytotoxicity assay, were added to the low control wells, on the previously prepared 384-well compound plates, resulting in 5,000 cells/well or 0 cells/well respectively. IFN-γ was added to the remaining cell suspension at a final concentration of 10 nM, and 50 μL of the stimulated cells were added to all remaining wells on the 384-well compound plates. The plates, with lids, were then placed in a 37° C., 5% CO2 humidified incubator for 2 days.
(§4) Following incubation, the 384-well plates were removed from the incubator and allowed to equilibrate to room temperature for 30 minutes. For the cytotoxicity assay, CellTiter-Glo® was prepared according to the manufacturer's instructions, and 10 μL were added to each plate well. After a twenty minute incubation at room temperature, luminescence was read on an EnVision® Multilabel Reader (PerkinElmer Inc., Waltham, Mass.). For the mass spectrometry assay, 10 μL of supernatant from each well of the compound-treated plates were added to 40 μL of acetonitrile, containing 10 μM of an internal standard for normalization, in 384-well, polypropylene, V-bottom plates (Greiner Bio-One, Kremsmünster, Austria) to extract the organic analytes. Following centrifugation at 2000 rpm for 10 minutes, 10 μL from each well of the acetonitrile extraction plates were added to 90 μL of sterile, distilled H2O in 384-well, polypropylene, V-bottom plates for analysis of kynurenine and the internal standard on the RapidFire 300 (Agilent Technologies, Santa Clara, Calif.) and 4000 QTRAP MS (SCIEX, Framingham, Mass.). MS data were integrated using Agilent Technologies' RapidFire Integrator software, and data were normalized for analysis as a ratio of kynurenine to the internal standard. […]

[2] = biological target: T1, indoleamine 2, 3-dioxygenase (IDO1) (Homo sapiens, UniProt P14902); experiment: IDO1 HeLa RapidFire MS assay (kynurenine detection by mass spectrometry); parameters: to induce the expression of indoleamine 2, 3-dioxygenase (IDO1); settings: HeLa cells, pIC50, read-out: IDO1_HELA_PXC50 (converted)
T1 sequence (P14902 whole entry): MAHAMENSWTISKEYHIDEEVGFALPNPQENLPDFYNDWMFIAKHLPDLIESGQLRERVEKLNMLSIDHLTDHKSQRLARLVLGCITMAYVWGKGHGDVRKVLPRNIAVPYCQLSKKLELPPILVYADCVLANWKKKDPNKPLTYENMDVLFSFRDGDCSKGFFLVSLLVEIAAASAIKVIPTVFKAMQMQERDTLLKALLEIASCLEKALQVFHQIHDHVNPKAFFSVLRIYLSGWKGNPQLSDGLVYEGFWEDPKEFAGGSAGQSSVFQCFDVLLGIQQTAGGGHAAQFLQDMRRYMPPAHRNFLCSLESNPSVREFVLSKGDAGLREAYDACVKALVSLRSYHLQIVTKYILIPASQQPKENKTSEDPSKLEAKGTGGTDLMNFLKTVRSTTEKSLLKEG
Description: IDO1 HeLa RapidFire MS Assay
as §1, §2, §3, §4

[3] = biological target: T1, indoleamine 2, 3-dioxygenase (IDO1); experiment: IDO1 PBMC RapidFire MS assay (kynurenine detection by mass spectrometry); parameters: to induce the expression of indoleamine 2, 3-dioxygenase (IDO1); host or cells: human PBMC stimulated with IFN-gamma and LPS; settings: human PBMC stimulated with IFN-γ and LPS, 2 days, pIC50, read-out: PBMC PXC50 (converted)
Method in brief: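 Kynurenine output, read by RapidFire mass spectrometry as ratio to an internal standard, was measured after 2-day compound exposure (11-point, 3-fold dilutions) of human PBMCs induced with 100 ng/ml IFN-γ and 50 ng/ml LPS. Cell viability tracked alongside via ATP luminescence; XC50 from curve fitting.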

[4] = system: human peripheral blood mononuclear cells (PBMC); experiment: PBMC cytotoxicity assay (CellTiter-Glo); settings: 2 days, pCC50
Method in brief: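 % cytotoxicity was taken from CellTiter-Glo luminescence, using wells without cells and stimulated DMSO wells as references, and fitted by four-parameter curve to give XC50. Cells were human PBMC at 50,000 per well, activated with 100 ng/ml IFN-γ plus 50 ng/ml LPS. Incubation with 11-point, 3-fold dilution series ran for 2 days at 37 °C.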

CC(C)CN(CC(C)C)c1ccc(C(C)CC(=O)O)cc1Nc1ccc(CO)cn1 (stereo not shown) [example 194, 3-{4-[bis(2-methylpropyl)amino]-3-{[5-(hydroxymethyl)pyridin-2-yl]amino}phenyl}butanoic acid]
HELA_IDO1_TOX_PXC50 [1]: <5
IC50 [2]: 0.2 µM

CC(=O)Nc1nnc(Nc2cc(C(C)CC(=O)O)ccc2N(CC(C)C)CC(C)C)s1 (stereo not shown) [example 187, 3-{4-[bis(2-methylpropyl)amino]-3-[(5-acetamido-1,3,4-thiadiazol-2-yl)amino]phenyl}butanoic acid]
HELA_IDO1_TOX_PXC50 [1]: <5
IC50 [2]: > 10 µM

CC(C)CN(c1ccc(-c2ccccc2C(=O)O)cc1NCCC#N)C1CCCCC1 [example 277, 3′-[(2-cyanoethyl)amino]-4′-[cyclohexyl(2-methylpropyl)amino]-[1,1′-biphenyl]-2-carboxylic acid]
HELA_IDO1_TOX_PXC50 [1]: <5
IC50 [2]: 0.316 µM

CC(C)CN(CC(C)C)c1ccc(C(C)CC(=O)O)cc1Nc1nc(C2CC2)cs1 (stereo not shown) [example 141, 3-{4-[bis(2-methylpropyl)amino]-3-[(4-cyclopropyl-1,3-thiazol-2-yl)amino]phenyl}butanoic acid]
HELA_IDO1_TOX_PXC50 [1]: <5
IC50 [2]: 0.794 µM

CC(C)CN(CC(C)C)c1ccc(C(C)CC(=O)O)cc1Nc1noc(-c2ccccc2)n1.O=C(O)C(F)(F)F (stereo not shown) [example 122, 3-{4-[bis(2-methylpropyl)amino]-3-[(5-phenyl-1,2,4-oxadiazol-3-yl)amino]phenyl}butanoic acid]
HELA_IDO1_TOX_PXC50 [1]: <4.3
IC50 [2]: 25.1 µM

CC(C)CN(c1ccc(C(C)CC(=O)O)cc1NC1=N[C@@H](c2ccccc2)CS1)C1CCCCC1 (stereo partly drawn) [example 149, 3-{4-[cyclohexyl(2-methylpropyl)amino]-3-{[(4S)-4-phenyl-4,5-dihydro-1,3-thiazol-2-yl]amino}phenyl}butanoic acid]
HELA_IDO1_TOX_PXC50 [1]: <5
IC50 [2]: 0.794 µM

COCc1ncc(Nc2cc(C(C)CC(=O)O)ccc2N(CC(C)C)CC(C)C)s1 (stereo not shown) [example 189, 3-{4-[bis(2-methylpropyl)amino]-3-{[2-(methoxymethyl)-1,3-thiazol-5-yl]amino}phenyl}butanoic acid]
HELA_IDO1_TOX_PXC50 [1]: <5
IC50 [2]: 0.2 µM

CC(C)CN(c1ccc(-c2ccccc2C(=O)O)cc1Nc1nc2ccccc2[nH]1)C1CCOCC1 [example 296, 3′-[(1H-1,3-benzodiazol-2-yl)amino]-4′-[(2-methylpropyl)(oxan-4-yl)amino]-[1,1′-biphenyl]-2-carboxylic acid]
HELA_IDO1_TOX_PXC50 [1]: <5
IC50 [2]: 0.631 µM

CC(C)CN(CC(C)C)c1ccc(C(C)CC(=O)O)cc1Nc1nc(-c2ccncc2)cs1 (stereo not shown) [example 130, 3-{4-[bis(2-methylpropyl)amino]-3-{[4-(pyridin-4-yl)-1,3-thiazol-2-yl]amino]phenyl}butanoic acid]
HELA_IDO1_TOX_PXC50 [1]: <4.3
IC50 [2]: 1.58 µM

CC(C)CN(CC(C)C)c1ccc(C(C)CC(=O)O)cc1Nc1nc(C2CCOCC2)cs1 (stereo not shown) [example 138, 3-{4-[bis(2-methylpropyl)amino]-3-{[4-(oxan-4-yl)-1,3-thiazol-2-yl]amino}phenyl}butanoic acid]
HELA_IDO1_TOX_PXC50 [1]: <4.3
IC50 [2]: 5.01 µM

CC(C)CN(c1ccc(C(C)CC(=O)O)cc1NC1CCN(C)CC1)C1CCCCC1 (stereo not shown) [example 140, 3-{4-[cyclohexyl(2-methylpropyl)amino]-3-[(1-methylpiperidin-4-yl)amino]phenyl}butanoic acid]
HELA_IDO1_TOX_PXC50 [1]: <5
IC50 [2]: 3.16 µM

CC(C)CN(c1ccc(-c2cccnc2C(=O)O)cc1Nc1nc2ccccc2[nH]1)C1CCCCC1 [example 278, 3-{3-[(1H-1,3-benzodiazol-2-yl)amino]-4-[cyclohexyl(2-methylpropyl)amino]phenyl}pyridine-2-carboxylic acid]
HELA_IDO1_TOX_PXC50 [1]: <5
IC50 [2]: 0.0501 µM

CC(C)CN(CC(C)C)c1ccc(-c2ccccc2C(=O)O)cc1Nc1ccn(C)n1 [example 280, 4′-[bis(2-methylpropyl)amino]-3′-[(1-methyl-1H-pyrazol-3-yl)amino]-[1,1′-biphenyl]-2-carboxylic acid]
HELA_IDO1_TOX_PXC50 [1]: <5
IC50 [2]: 2.51 µM

CC(C)CN(c1ccc(C(C)CC(=O)O)cc1NC1CCS(=O)(=O)CC1)C1CCCCC1 (stereo not shown) [example 134, 3-{4-[cyclohexyl(2-methylpropyl)amino]-3-[(1,1-dioxo-1λ^6-thian-4-yl)amino]phenyl}butanoic acid]
HELA_IDO1_TOX_PXC50 [1]: <5
IC50 [2]: 3.16 µM

CC(C)CN(CC(C)C)c1ccc(C(C)CC(=O)O)cc1Nc1cnc(CO)s1 (stereo not shown) [example 207, 3-{4-[bis(2-methylpropyl)amino]-3-{[2-(hydroxymethyl)-1,3-thiazol-5-yl]amino}phenyl}butanoic acid]
HELA_IDO1_TOX_PXC50 [1]: <5
IC50 [2]: 0.631 µM

CC(C)CN(CC(C)C)c1ccc([C@@H]2C[C@@H]2C(=O)O)cc1Nc1nc(C(F)(F)F)ns1 (single isomer, unassigned) [example 209]
IC50 [3]: 0.0501 µM
PBMC TOX PXC50 [4]: <5
IC50 [2]: 0.02 µM

CC(C)CN(c1ccc(C(C)CC(=O)O)cc1NCc1c[nH]cn1)C1CCCCC1 (stereo not shown) [example 159, 3-{4-[cyclohexyl(2-methylpropyl)amino]-3-{[(1H-imidazol-4-yl)methyl]amino}phenyl} butanoic acid]
IC50 [3]: 5.01 µM
PBMC TOX PXC50 [4]: <5
HELA_IDO1_TOX_PXC50 [1]: <5

CC(C)CN(c1ccc(/C=C/C(=O)O)cc1Nc1nc2ccccc2o1)C1CCCCC1 [example 137, (2E)-3-{3-[(1,3-benzoxazol-2-yl)amino]-4-[cyclohexyl(2-methylpropyl)amino]phenyl}prop-2-enoic acid]
HELA_IDO1_TOX_PXC50 [1]: <5

CC(C)CN(CC(C)C)c1ccc(C(C)CC(=O)O)cc1Nc1nnc(-c2ccccc2)o1.O=C(O)C(F)(F)F (stereo not shown) [example 123, 3-{4-[bis(2-methylpropyl)amino]-3-[(5-phenyl-1,3,4-oxadiazol-2-yl)amino]phenyl}butanoic acid]
HELA_IDO1_TOX_PXC50 [1]: <4.3

CC(C)CN(CC(C)C)c1ccc(C(C)CC(=O)O)cc1Nc1nc(N2CCC2)ns1 (stereo not shown) [example 120, 3-(3-{[3-(azetidin-1-yl) 1,2,4-thiadiazol-5-yl]amino}-4-[bis(2-methylpropyl)amino]phenyl)butanoic acid]
PBMC TOX PXC50 [4]: 4.7
HELA_IDO1_TOX_PXC50 [1]: <4.3

COCc1nnc(Nc2cc([C@H](C)CC(=O)O)ccc2N(CC(C)C)C2CCOCC2)s1 [example 216, (3R)-3-(3-{[5-(methoxymethyl)-1,3,4-thiadiazol-2-yl]amino}-4-[(2-methylpropyl)(oxan-4-yl)amino]phenyl)butanoic acid]
IC50 [3]: 0.0398 µM
PBMC TOX PXC50 [4]: <5
IC50 [2]: 0.0501 µM
